Reference: paper PMC11214964 (Biomolecules & Therapeutics, 2024)
Where two headings read alike, the source gives them in different places.

Target: CB1R (Homo sapiens, UniProt P21554)
Experiment: cell-based
Type: binding

Sequence of CB1R (P21554 whole entry): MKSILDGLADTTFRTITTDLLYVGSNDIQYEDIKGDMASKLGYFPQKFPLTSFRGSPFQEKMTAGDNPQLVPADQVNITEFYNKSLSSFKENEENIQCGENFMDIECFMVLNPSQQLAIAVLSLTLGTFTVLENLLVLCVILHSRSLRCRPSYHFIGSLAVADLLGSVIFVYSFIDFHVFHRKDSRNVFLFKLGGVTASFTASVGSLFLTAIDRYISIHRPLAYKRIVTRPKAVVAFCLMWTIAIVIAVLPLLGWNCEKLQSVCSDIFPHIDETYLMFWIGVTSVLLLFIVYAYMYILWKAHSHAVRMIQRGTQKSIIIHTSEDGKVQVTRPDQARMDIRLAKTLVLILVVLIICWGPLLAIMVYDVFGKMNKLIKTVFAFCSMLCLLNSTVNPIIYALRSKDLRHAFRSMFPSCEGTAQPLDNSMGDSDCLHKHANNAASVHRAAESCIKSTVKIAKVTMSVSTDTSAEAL

| Compound | Ki [nM] | Ki (read-out: Ki (nM), binding affinity for CB1R, competition with 3 nM [3H]-SR141716A, 6 h at 4°C, Ki=IC50/(1+[D]/Kd)) [nM] |
| --- | --- | --- |
| N#Cc1c(Oc2cccc(OS(=O)(=O)CCCC(F)(F)F)c2)cccc1C(F)(F)F [Compound 29, 3-[2-cyano-3-(trifluoromethyl)phenoxy]phenyl-4,4,4-trifluoro-1-butanesulfonate] | 18.1 |  |
| AM-1248 [Compound 10] |  | 104 |
